Reference: patent US8143259B2, “Cold menthol receptor antagonists” (Janssen Pharmaceutica, NV, priority 2008, dated 2012)
Several values for one entry are separate records, joined by “and”; a condition that tells them apart may be missing. Equal entries are not always repeated.

Molecular target: T1, canine TRPM8 (Canis lupus familiaris, UniProt Q1A7N1)
T1 construct: expressed in transfected cells
Experiment: In Vitro Canine TRPM8 Functional Assay (Ca2+ fluorescence, icilin activation)
Assay type: cell-based
Settings: for inhibition at 0.2 µM: HEK293, 0.2 μM compound; for % Inh @ 0.5 μM: 0.5 μM compound; for IC50: HEK293 cells stably expressing canine TRPM8, icilin activation, Ca2+ fluorescence; for % Inh @ 0.2 μM: 0.2 μM compound; for inhibition at 0.5 µM: HEK293, 0.5 μM compound
Method: The functional activity of compounds of the formula (I) was determined by measuring changes in intracellular calcium concentration using a Ca^2+-sensitive fluorescent dye. The changes in fluorescent signal were monitored by a fluorescence plate reader, either a FLIPR™ (Molecular Devices) or FDSS (Hamamatsu). Increases in intracellular Ca^2+ concentration were readily detected upon activation with icilin.
HEK293 cells stably expressing canine TRPM8 were routinely grown as monolayers in Dulbecco's minimum essential medium supplemented with 10% FBS, 2 mM L-glutamine, 100 units/mL penicillin, 100 ug/mL streptomycin and 400 μg/mL G418. Cells were maintained in 5% CO2 at 37° C. At 24 hrs prior to assay, cells were seeded in black wall, clear-base poly-D-lysine coated 384-well plates (BD Biosciences, NJ, USA) at a density of 5,000 cells per well in culture medium and grown overnight in 5% CO2 at 37° C. On assay day, growth media was removed and cells were loaded with Calcium 3 Dye (Molecular Devices) for 35 min at 37° C., under 5% CO2 and then for 25 min at room temperature and atmosphere. Subsequently, cells were tested for agonist-induced increases in intracellular Ca^2+ levels using FLIPR™ or FDSS. Cells were challenged with compounds of the formula (I) (at varying concentrations) and intracellular Ca^2+ was measured for 5 min prior to the addition of icilin to all wells to achieve a final concentration that produces approximately an 80% maximal response.
Maximal fluorescence intensity (FI) achieved upon addition of icilin was exported from the FLIPR or FDSS software and further analyzed using GraphPad Prism 3.02 (Graph Pad Software Inc., CA, U.S.A.). Basal FI was subtracted prior to normalizing data to percent of maximal response. Curves were generated using the average of quadruplicate wells for each data point, were analyzed using nonlinear regression of either sigmoidal dose response or sigmoidal dose response (variable slope).

[1] = canine TRPM8 HEK293, icilin, 0.2 µM

T1 sequence (Q1A7N1 1-1104): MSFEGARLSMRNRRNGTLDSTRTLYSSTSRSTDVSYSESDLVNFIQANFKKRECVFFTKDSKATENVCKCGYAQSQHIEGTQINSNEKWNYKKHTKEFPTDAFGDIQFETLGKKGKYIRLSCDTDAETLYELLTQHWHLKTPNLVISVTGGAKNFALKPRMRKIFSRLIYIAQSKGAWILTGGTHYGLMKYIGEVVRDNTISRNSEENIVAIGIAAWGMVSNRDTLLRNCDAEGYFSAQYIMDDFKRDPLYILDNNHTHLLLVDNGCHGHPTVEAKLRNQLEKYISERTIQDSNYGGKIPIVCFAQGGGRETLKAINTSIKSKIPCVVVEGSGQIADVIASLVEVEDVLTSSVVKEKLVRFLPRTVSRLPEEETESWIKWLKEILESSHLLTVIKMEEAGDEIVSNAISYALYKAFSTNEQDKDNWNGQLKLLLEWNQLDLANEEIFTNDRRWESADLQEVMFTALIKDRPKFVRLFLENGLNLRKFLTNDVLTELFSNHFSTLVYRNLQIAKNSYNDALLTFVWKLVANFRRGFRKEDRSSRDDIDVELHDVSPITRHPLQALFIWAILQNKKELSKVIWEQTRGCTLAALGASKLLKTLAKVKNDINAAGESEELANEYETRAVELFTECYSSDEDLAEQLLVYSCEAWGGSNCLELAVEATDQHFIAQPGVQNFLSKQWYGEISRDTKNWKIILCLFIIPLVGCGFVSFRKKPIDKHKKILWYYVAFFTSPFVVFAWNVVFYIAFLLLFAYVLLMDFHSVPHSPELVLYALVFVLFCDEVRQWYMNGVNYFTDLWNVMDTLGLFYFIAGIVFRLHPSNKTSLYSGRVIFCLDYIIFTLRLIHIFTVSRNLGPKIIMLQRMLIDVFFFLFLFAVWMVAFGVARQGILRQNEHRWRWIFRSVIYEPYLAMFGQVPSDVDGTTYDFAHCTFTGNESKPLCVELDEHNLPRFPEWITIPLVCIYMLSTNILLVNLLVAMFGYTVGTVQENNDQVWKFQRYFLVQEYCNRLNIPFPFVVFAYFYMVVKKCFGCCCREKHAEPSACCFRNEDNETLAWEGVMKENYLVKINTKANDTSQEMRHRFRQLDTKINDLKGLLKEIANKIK

Structure (SMILES) | inhibition at 0.2 µM (canine TRPM8 HEK293, icilin) | IC50 | also measured
O=C(C(Nc1cccc(F)c1F)c1ccc(Cl)cc1)N1CCCC1c1ccccc1Cl (single isomer, unassigned) [Cpd 166] |  | 61 nM | % Inh @ 0.5 μM (canine TRPM8 HEK293, icilin): 96%
O=C(C(Nc1ccccc1)c1ccc(C(F)(F)F)cc1)N1CCCC1c1cccnc1 (stereo not drawn) [Cpd 19] |  | 282 nM | inhibition at 1 µM (HEK293, 1 μM compound, canine TRPM8 HEK293, icilin): 100%
O=C(O)c1cccc(-c2ccc(C(Nc3ccccc3F)C(=O)N3CCCC3c3ccccc3F)cc2)c1 (mixture of isomers) [Cpd 310] |  |  | % Inh @ 0.2 μM (canine TRPM8 HEK293, icilin): 41%
Cn1cc(C(Nc2ccccc2F)C(=O)N2CCCC2c2ccccc2F)c2ccccc21 (racemic) [Cpd 250] |  |  | % Inh @ 0.2 μM (canine TRPM8 HEK293, icilin): 25%
O=C(C(CNc1ccccc1)c1ccc(C(F)(F)F)cc1)N1CCCC1c1ccccc1 (mixture of isomers) [Cpd 94] |  | 162 nM | % Inh @ 0.5 μM (canine TRPM8 HEK293, icilin): 98%
O=C(C(Nc1ccccc1)c1ccc(C(F)(F)F)cc1)N1CCCC1c1ccccc1C(F)(F)F (single isomer, unassigned) [Cpd 31] |  | 48.5 nM | % Inh @ 0.5 μM (canine TRPM8 HEK293, icilin): 104.03%
O=C(C(CNc1ccccc1)c1ccc(C(F)(F)F)cc1)N1CCc2ccccc2C1 (stereo not drawn) [Cpd 102] |  | 159 nM | inhibition at 0.5 µM (canine TRPM8 HEK293, icilin): 98%
COc1ccccc1C1CCCN1C(=O)C(Nc1ccc(F)cc1F)c1ccc(Cl)cc1 (stereo not drawn) [Cpd 124] |  | 81.7 nM | inhibition at 0.5 µM (canine TRPM8 HEK293, icilin): 98%
O=C(C(Nc1c(F)cccc1F)c1ccc(Cl)cc1)N1CCCC1c1ccccc1Cl (stereo not drawn) [Cpd 143] |  | 25 nM | inhibition at 0.5 µM (canine TRPM8 HEK293, icilin): 101%
CC(Nc1ccccc1)(C(=O)N1CCCC1c1ccccc1Cl)c1ccc(C(F)(F)F)cc1 (stereo not drawn) [Cpd 80, 1-[2-(2-Chloro-phenyl)-pyrrolidin-1-yl]-2-phenylamino-2-(4-trifluoromethyl-phenyl)-propan-1-one] |  |  | inhibition at 0.5 µM (canine TRPM8 HEK293, icilin): 69%
O=C(C(Nc1ccccc1)c1ccc(C(F)(F)F)cc1)N1CCCC1c1ccco1 (stereo not drawn) [Cpd 52] |  | 19.8 nM | inhibition at 0.5 µM (canine TRPM8 HEK293, icilin): 97.8%
O=C(C(Nc1ccc(F)cc1)c1ccc(Cl)cc1)N1Cc2cccc(F)c2C1 (stereo not drawn) [Cpd 121] |  | 125 nM | inhibition at 0.5 µM (canine TRPM8 HEK293, icilin): 97%
O=C(C(Nc1cc(F)ccc1F)c1ccc(Cl)cc1)N1CCCC1c1ccccc1 (stereo not drawn) [Cpd 173] | 103% | 35.6 nM | 
O=C(C(Nc1ccc(F)cc1F)c1ccc(Cl)cc1)N1CCCC1c1ccccc1 (stereo not drawn) [Cpd 125] |  | 62.3 nM | inhibition at 0.5 µM (canine TRPM8 HEK293, icilin): 96%
O=C(C(Nc1ccccc1)c1ccc(Cl)cc1)N1CCc2ccccc2C1 (stereo not drawn) [Cpd 88] |  | 96 nM | inhibition at 0.5 µM (canine TRPM8 HEK293, icilin): 99%
O=C(C(Nc1ccccc1F)c1ccc(Cl)cc1)N1CCCC1c1ccccc1Cl (stereo not drawn) [Cpd 110] |  | 55.4 nM | inhibition at 0.5 µM (canine TRPM8 HEK293, icilin): 98%
O=C(C(Nc1ccccc1)c1ccc(Cl)cc1)N1CCCC1c1ccccc1 (stereo not drawn) [Cpd 86] |  | 15 nM | inhibition at 0.5 µM (canine TRPM8 HEK293, icilin): 97%
Cc1ccccc1NC(C(=O)N1CCc2ccccc21)c1ccc(C(F)(F)F)cc1 (stereo not drawn) [Cpd 34, 1-(Indolin-1-yl)-2-(o-tolylamino)-2-(4-(trifluoromethyl)phenyl)-ethanone] |  | 161 nM | inhibition at 0.5 µM (canine TRPM8 HEK293, icilin): 102%
O=C(C(Nc1ccccc1F)c1cncc2ccccc12)N1CCCC1c1ccccc1F (single isomer, unassigned) [Cpd 332] |  |  | % Inh @ 0.2 μM [1]: 47%

Second part, led by results:

inhibition at 0.2 µM (canine TRPM8 HEK293, icilin) | IC50 | Structure (SMILES) | also measured
57% |  | O=C(C(Nc1ccccc1F)c1ccc(C2=CCNCC2)cc1)N1CCCC1c1ccccc1F (stereo not drawn) [Cpd 302, 2-(2-Fluoro-phenylamino)-1-[2-(2-fluoro-phenyl)-pyrrolidin-1-yl]-2-[4-(1,2,3,6-tetrahydro-pyridin-4-yl)-phenyl]-ethanone] | 
 | 6 nM and 8 nM | O=C(C(Nc1ccccc1F)c1ccc(-c2cccnc2)cc1)N1CCCC1c1ccccc1F (mixture of isomers) [Cpd 300] | % Inh @ 0.2 μM [1]: 101% and 102%
88% | 115 nM | COC(=O)c1ccc(C2CCCN2C(=O)C(Nc2ccccc2F)c2ccc(-c3ccccn3)cc2)cc1 (stereo not drawn) [Cpd 352] | 
 | 9 nM | O=C(C(Nc1ccccc1F)c1ccc(Br)cc1)N1CCCC1c1ccccc1F (mixture of isomers) [Cpd 180] | % Inh @ 0.2 μM (canine TRPM8 HEK293, icilin): 97%
99% | 65 nM | CC(C)(C)OC(=O)N1CC=C(c2ccc(C(Nc3ccccc3F)C(=O)N3CCCC3c3ccccc3F)cc2)CC1 (stereo not drawn) [Cpd 299, 4-(4-{1-(2-Fluoro-phenylamino)-2-[2-(2-fluoro-phenyl)-pyrrolidin-1-yl]-2-oxo-ethyl}-phenyl)-3,6-dihydro-2H-pyridine-1-carboxylic acid tert-butyl ester] | 
98% | 104 nM | CN(C)c1ccc(C2CCCN2C(=O)C(Nc2c(F)cccc2F)c2ccc(Cl)cc2)cc1 (stereo not drawn) [Cpd 273] | 
100% | 5 nM | CC(C)(C)c1ccc(C(Nc2ccccc2F)C(=O)N2CCC[C@H]2c2ccccc2F)cn1 (mixture of isomers) [Cpd 355] | 
96% | 48 nM | COC(=O)c1ccc(C2CCCN2C(=O)C(Nc2ccccc2F)c2ccc(C(F)(F)F)cc2)cc1 (stereo not drawn) [Cpd 220] | 
100% | 3 nM | CC(C)(C)c1ccc(C(Nc2ccccc2F)C(=O)N2CCC[C@H]2c2ccccc2F)cn1 (single isomer, unassigned) [Cpd 357] | 
101% | 5 nM | Cc1nc2ccc(C(Nc3ccccc3F)C(=O)N3CCCC3c3ccccc3F)cc2s1 (single isomer, unassigned) [Cpd 340] | 
47% |  | COC(=O)[C@@H]1CC[C@H](c2ccccc2)N1C(=O)C(Nc1c(F)cccc1F)c1ccc(Br)cc1 (single isomer, unassigned) [Cpd 204] | 
89% | 8 nM | O=C(C(Nc1ccccc1F)c1cc2ccccc2s1)N1CCCC1c1ccncc1 (single isomer, unassigned) [Cpd 322] | 
70% | 160 nM | O=C(N1CCCC1c1ccccc1)C1(c2ccc(C(F)(F)F)cc2)CCc2ccccc2N1 (stereo not drawn) [Cpd 194, (2-Phenyl-pyrrolidin-1-yl)-[2-(4-trifluoromethyl-phenyl)-1,2,3,4-tetrahydro-quinolin-2-yl]-methanone] | 
87% | 25 nM | O=C(C(Nc1ccccc1F)c1cc2cccnc2s1)N1CCCC1c1ccccc1F (racemic) [Cpd 320] | 
102% | 26 nM | CC(=O)Nc1cccc(C2CCCN2C(=O)C(Nc2ccccc2F)c2ccc(C(F)(F)F)cc2)c1 (stereo not drawn) [Cpd 316] | 
101% | 8 nM | COc1ccccc1C1CCCN1C(=O)C(Nc1ccccc1F)c1cnc2ccccc2c1 (single isomer, unassigned) [Cpd 277] | 
91% | 12 nM and 15 nM | O=C(C(Nc1ccccc1F)c1ccc(-c2cccnc2)cc1)N1CCCC1c1ccccc1F (stereo not drawn) [Cpd 285, 2-(2-Fluoro-phenylamino)-1-[2-(2-fluoro-phenyl)-pyrrolidin-1-yl]-2-(4-pyridin-3-yl-phenyl)-ethanone] | % Inh @ 0.2 μM [1]: 96%
101% | 9 nM | COC(=O)C1CCC(c2ccccc2)N1C(=O)C(Nc1ccccc1F)c1ccc(Br)cc1 (single isomer, unassigned) [Cpd 208] | 
 | 99 nM | COC(=O)C1CCC(c2ccccc2)N1C(=O)C(Nc1ccccc1F)c1ccc(Br)cc1 (single isomer, unassigned) [Cpd 209] | % Inh @ 0.2 μM [1]: 94%
 | 100 nM | O=C(C(Nc1ccccc1F)c1cnc2ccccc2c1)N1Cc2ccccc2C1 (stereo not drawn) [Cpd 371] | 
